PubChem BioAssay AID1671319

Biological target: Tyrosine-protein kinase Lyn (Homo sapiens) (UniProt P07948)
Assay: LYN B kinase inhibition, dose response, biochemical, LYN B isoform, Z'-LYTE, FRET readout (AID 1671319)
Conditions: Z'-LYTE FRET kinase assay, recombinant LYN B

Chain of Tyrosine-protein kinase Lyn (Homo sapiens) (P07948 whole entry, looked up, canonical isoform): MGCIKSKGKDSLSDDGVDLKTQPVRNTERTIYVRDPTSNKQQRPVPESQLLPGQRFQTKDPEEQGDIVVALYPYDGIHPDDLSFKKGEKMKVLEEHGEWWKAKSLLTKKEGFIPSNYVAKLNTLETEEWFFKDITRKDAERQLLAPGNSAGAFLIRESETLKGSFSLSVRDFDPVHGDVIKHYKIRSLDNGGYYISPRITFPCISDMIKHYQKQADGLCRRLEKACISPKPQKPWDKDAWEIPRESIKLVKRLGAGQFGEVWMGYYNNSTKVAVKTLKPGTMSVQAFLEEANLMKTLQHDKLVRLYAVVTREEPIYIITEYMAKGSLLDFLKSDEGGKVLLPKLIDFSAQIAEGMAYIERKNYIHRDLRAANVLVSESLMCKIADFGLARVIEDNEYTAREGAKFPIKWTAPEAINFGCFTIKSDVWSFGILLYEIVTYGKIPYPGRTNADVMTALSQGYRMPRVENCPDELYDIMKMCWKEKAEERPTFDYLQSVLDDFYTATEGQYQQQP

IC50: 244 nM
Compound: COc1cc2ncnc(Nc3cccc(Cl)c3)c2cc1OC
